{
  "source": "patent US12545686B2",
  "about": "“Polymorphic forms of (s)-n-(3-bromo-2-fluorophenyl)-7-((4-methylpiperazin-1-yl)methyl)-7,8-dihydro-[1,4]dioxino[2,3-g]quinazolin-4-amine as EGFR inhibitors” (ERASCA, INC., priority 2021, dated 2026)",
  "key": {"[1]": {"test": "pH dependent solubility tests in 0.1 M HCl, citrate buffer and USP phosphate buffers", "type": "physicochemical", "conditions": "in 1.0 ml of 0.1M HCl", "procedure": "pH dependent solubility tests were conducted in 0.1 M HCl, in citrate buffer, and in USP phosphate buffers with nominal pH values of 6.8 and 7.4. Solubility tests at pH values below 5 failed because all compounds dissolved during the equilibration phase."}, "[2]": {"molecular_target": "EGFR (Homo sapiens, UniProt P00533)", "sequence (P00533 25-1210)": "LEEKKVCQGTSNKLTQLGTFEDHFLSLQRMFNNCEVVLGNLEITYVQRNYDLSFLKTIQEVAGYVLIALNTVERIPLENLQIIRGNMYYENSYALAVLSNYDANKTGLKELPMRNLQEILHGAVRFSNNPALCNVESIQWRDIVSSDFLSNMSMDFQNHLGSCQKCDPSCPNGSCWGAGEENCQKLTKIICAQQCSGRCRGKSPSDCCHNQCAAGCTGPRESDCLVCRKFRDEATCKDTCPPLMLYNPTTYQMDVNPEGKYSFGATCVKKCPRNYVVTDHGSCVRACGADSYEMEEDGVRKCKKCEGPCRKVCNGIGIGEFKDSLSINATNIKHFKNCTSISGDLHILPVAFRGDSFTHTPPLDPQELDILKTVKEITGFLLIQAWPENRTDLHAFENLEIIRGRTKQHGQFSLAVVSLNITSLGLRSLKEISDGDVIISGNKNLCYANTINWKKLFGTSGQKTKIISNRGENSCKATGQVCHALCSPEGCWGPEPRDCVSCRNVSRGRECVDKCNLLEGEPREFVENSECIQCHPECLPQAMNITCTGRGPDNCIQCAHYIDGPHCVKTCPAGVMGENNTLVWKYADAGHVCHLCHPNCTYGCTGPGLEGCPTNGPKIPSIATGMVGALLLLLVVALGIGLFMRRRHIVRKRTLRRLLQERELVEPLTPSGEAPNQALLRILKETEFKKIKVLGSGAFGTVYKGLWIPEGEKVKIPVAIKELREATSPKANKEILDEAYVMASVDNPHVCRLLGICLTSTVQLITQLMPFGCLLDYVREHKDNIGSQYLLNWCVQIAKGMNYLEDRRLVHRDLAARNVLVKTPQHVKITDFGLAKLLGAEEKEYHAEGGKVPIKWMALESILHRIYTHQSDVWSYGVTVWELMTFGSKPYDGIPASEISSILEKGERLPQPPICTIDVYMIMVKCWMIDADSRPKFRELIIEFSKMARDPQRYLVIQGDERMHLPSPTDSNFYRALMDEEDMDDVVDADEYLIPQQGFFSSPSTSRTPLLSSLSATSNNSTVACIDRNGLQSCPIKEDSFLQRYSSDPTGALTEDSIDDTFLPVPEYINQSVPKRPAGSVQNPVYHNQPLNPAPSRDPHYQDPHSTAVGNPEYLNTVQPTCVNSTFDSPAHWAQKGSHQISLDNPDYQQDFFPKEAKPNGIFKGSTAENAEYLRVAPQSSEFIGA", "conditions": "as disclosed in WO 2020/190765; cited from earlier work"}, "[3]": {"conditions": "as disclosed in WO 2020/190765; cited from earlier work"}},
  "data": [
    {"smiles": "CN1CCN(C[C@H]2COc3cc4ncnc(Nc5cccc(Br)c5F)c4cc3O2)CC1", "note": "[Compound (I), (S)—N-(3-bromo-2-fluorophenyl)-7-((4-methylpiperazin-1-yl)methyl)-7,8-dihydro-[1,4]dioxino[2,3-g]quinazolin-4-amine]", "values": [
      {"measurement": "Amount of compound that easily dissolves (approximate test)", "setting": "[1]", "value": "≥ 55", "unit": "mg"},
      {"measurement": "EGFR inhibitory activity", "setting": "[2]", "value": "good EGFR inhibitory activity"},
      {"measurement": "Brain penetration capability", "setting": "[3]", "value": "brain penetration capability"}
    ]}
  ]
}
